According to EP4796126A1, “COMBINATION OF CLDN18_2 ANTIBODY AND CHEMOTHERAPEUTIC DRUG AND USE THEREOF” (Jiangsu Aosaikang Biopharmaceutical Co., Ltd., priority 2023, dated 2025):

Experiments:
Miapaca2/18.2 = test: Efficacy against subcutaneous xenograft tumors of human pancreatic cancer Miapaca2/18.2 in mice; assay type: in vivo
Experimental: (§1) NOD-Scid mice (7 weeks old, female) were purchased from Shanghai Lingchang Biotechnology Co., Ltd. Each mouse was subcutaneously inoculated with 1 × 10^7 Miapaca2/18.2 cells. When tumor volume reached 60 mm^3 to 150 mm^3, the mice were grouped according to tumor volume and then the medicaments were administered intraperitoneally (IP) at an injection volume of 0.1 mL per 10 g of body weight.

KATO III/18.2 = test: Efficacy against subcutaneous xenograft tumors of human gastric cancer KATO III/18.2 in mice; assay type: in vivo, NOD-Scid mice
Experimental: as §1, with “× 10^7 KATO III/18.2 cells. When” for “× 10^7 Miapaca2/18.2 cells. When”, “to tumor volume, and then” for “to tumor volume and then”

Structure (SMILES)	tumor growth inhibition (Miapaca2/18.2; Day 14 (first dose Day 0), M5 monoclonal antibody or Human IgG1 10 mg/kg IP BIW 4 times, gemcitabine 75 mg/kg IP Q4D 2 times) [%]	maximum weight loss (Miapaca2/18.2; mice, on Day 7) [%]	mice died (Miapaca2/18.2; ten mice per group)	tumor growth inhibition (KATO III/18.2; Day 23 (first dose Day 0), M5 monoclonal antibody or Human IgG1 10 mg/kg IP BIW 6 times, oxaliplatin 8 mg/kg IP Q4D 3 times) [%]	maximum weight losses (KATO III/18.2; mice, on Day 10) [%]
Nc1ccn([C@@H]2O[C@H](CO)[C@@H](O)C2(F)F)c(=O)n1 [gemcitabine]	53	9.2	one out of ten		
O=C1[O][Pt]2([NH][C@@H]3CCCC[C@H]3[NH]2)[O]C1=O [oxaliplatin]				31	5.5
